According to patent US20250154173A1 (Merck Sharp & Dohme LLC, priority 2023, published 2025):
pEC50: −log10 of the molar value.

Molecular target: T1, GST-RIPK1 (recombinant GST-RIPK1 kinase domain (residues 1-327)) (Homo sapiens, UniProt Q13546)
T1 construct: recombinant GST-RIPK1 kinase domain (residues 1-327) enzyme produced from baculovirus-transfected Sf21 cells; host or cells: baculovirus-transfected Sf21 insect cells
T1 sequence (Q13546 1-327): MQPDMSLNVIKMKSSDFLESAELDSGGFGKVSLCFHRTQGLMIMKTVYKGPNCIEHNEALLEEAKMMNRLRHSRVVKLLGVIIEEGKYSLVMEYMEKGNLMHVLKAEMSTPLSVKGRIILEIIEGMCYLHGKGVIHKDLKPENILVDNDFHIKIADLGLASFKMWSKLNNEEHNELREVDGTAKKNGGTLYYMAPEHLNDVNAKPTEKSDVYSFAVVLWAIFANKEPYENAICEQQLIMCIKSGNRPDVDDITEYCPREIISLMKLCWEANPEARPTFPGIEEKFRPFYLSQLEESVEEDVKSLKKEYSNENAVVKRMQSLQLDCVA
Experiment: RIPK1-ADP-Glo Enzymatic Assay
Type: biochemical
Details: ten-point titration, top compound concentration of 100000 nM; 25 nM GST-RIPK1, 300 μM ATP, 3 μM dephosphorylated-MBP; 30 min pre-incubation, 150 min reaction
Outline: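 ADP-Glo luminescence quantifies ADP formed over 150 minutes by 25 nM Sf21-produced GST-RIPK1 (1-327) using 300 μM ATP and 3 μM dephosphorylated MBP, following 30-minute compound preincubation at 1% DMSO. Ten-point 1:3 series from 100000 nM gave EC50 via four-parameter sigmoidal regression.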

Row | SMILES | pEC50
1 | O=C1N2C(CC[C@H]2c2cnccn2)OC12CC(OCc1ccc3nccn3c1)C2 (stereo partly drawn) [Example 18.69, (5′S)-3-[(imidazo[1,2-a]pyridin-6-yl)methoxy]-5′-(pyrazin-2-yl)tetrahydro-3′H-spiro[cyclobutane-1,2′-pyrrolo[2,1-b][1,3]oxazol]-3′-one] | 6.96
2 | COc1ccc(COC2CC3(C2)OC2CC[C@@H](c4cnccn4)N2C3=O)cn1 (stereo partly drawn) [Example 18.70, (5′S)-3-[(6-methoxypyridin-3-yl)methoxy]-5′-(pyrazin-2-yl)tetrahydro-3′H-spiro[cyclobutane-1,2′-pyrrolo[2,1-b][1,3]oxazol]-3′-one] | 6.82
3 | O=C1N2C(CC[C@H]2c2cnccn2)OC12CC(OCc1csc(C3CC3)n1)C2 (stereo partly drawn) [Example 18.71, (5′S)-3-[(2-cyclopropyl-1,3-thiazol-4-yl)methoxy]-5′-(pyrazin-2-yl)tetrahydro-3′H-spiro[cyclobutane-1,2′-pyrrolo[2,1-b][1,3]oxazol]-3′-one] | 6.10
4 | O=C1N2C(CC[C@H]2c2cnccn2)OC12CC(OCc1cccc3cncc(F)c13)C2 (stereo partly drawn) [Example 18.72, (5′S)-3-[(4-fluoroisoquinolin-5-yl)methoxy]-5′-(pyrazin-2-yl)tetrahydro-3′H-spiro[cyclobutane-1,2′-pyrrolo[2,1-b][1,3]oxazol]-3′-one] | 7.08
5 | O=C1N2C(CC[C@H]2c2cnccn2)OC12CC(OCc1ccc3nc(C4CC4)cn3c1)C2 (stereo partly drawn) [Example 18.73, (5′S)-3-[(2-cyclopropylimidazo[1,2-a]pyridin-6-yl)methoxy]-5′-(pyrazin-2-yl)tetrahydro-3′H-spiro[cyclobutane-1,2′-pyrrolo[2,1-b][1,3]oxazol]-3′-one] | 6.95
6 | O=C1N2C(CC[C@H]2c2cnccn2)OC12CC(OCc1ccc(Cn3ccnc3)cc1)C2 (stereo partly drawn) [Example 18.74, (5′S)-3-({4-[(1H-imidazol-1-yl)methyl]phenyl}methoxy)-5′-(pyrazin-2-yl)tetrahydro-3′H-spiro[cyclobutane-1,2′-pyrrolo[2,1-b][1,3]oxazol]-3′-one] | 7.04
7 | COc1ccc(C#N)nc1COC1CC2(C1)OC1CC[C@@H](c3cnccn3)N1C2=O (stereo partly drawn) [Example 18.75, 5-methoxy-6-({[(5′S)-3′-oxo-5′-(pyrazin-2-yl)tetrahydro-3′H-spiro[cyclobutane-1,2′-pyrrolo[2,1-b][1,3]oxazol]-3-yl]oxy}methyl)pyridine-2-carbonitrile] | 6.05
8 | O=C1N2C(CC[C@H]2c2cnccn2)OC12CC(OCc1cccc(Cn3ccnn3)c1)C2 (stereo partly drawn) [Example 18.76, (5′S)-5′-(pyrazin-2-yl)-3-({3-[(1H-1,2,3-triazol-1-yl)methyl]phenyl}methoxy)tetrahydro-3′H-spiro[cyclobutane-1,2′-pyrrolo[2,1-b][1,3]oxazol]-3′-one] | 6.77
9 | O=C1N2C(CC[C@H]2c2cnccn2)OC12CC(OCc1cncc(OCCF)c1)C2 (stereo partly drawn) [Example 18.77, (5′S)-3-{[5-(2-fluoroethoxy)pyridin-3-yl]methoxy}-5′-(pyrazin-2-yl)tetrahydro-3′H-spiro[cyclobutane-1,2′-pyrrolo[2,1-b][1,3]oxazol]-3′-one] | 6.76
10 | N#CC1(c2ccc(COC3CC4(C3)OC3CC[C@@H](c5cnccn5)N3C4=O)cn2)CCC1 (stereo partly drawn) [Example 18.78, 1-[5-({[(5′S)-3′-oxo-5′-(pyrazin-2-yl)tetrahydro-3′H-spiro[cyclobutane-1,2′-pyrrolo[2,1-b][1,3]oxazol]-3-yl]oxy}methyl)pyridin-2-yl]cyclobutane-1-carbonitrile] | 6.14
11 | N#CC1(c2ccc(COC3CC4(C3)OC3CC[C@@H](c5cnccn5)N3C4=O)c(Cl)c2)CC1 (stereo partly drawn) [Example 18.79, 1-[3-chloro-4-({[(5′S)-3′-oxo-5′-(pyrazin-2-yl)tetrahydro-3′H-spiro[cyclobutane-1,2′-pyrrolo[2,1-b][1,3]oxazol]-3-yl]oxy}methyl)phenyl]cyclopropane-1-carbonitrile] | 7.70
12 | O=C1N2C(CC[C@H]2c2cnccn2)OC12CC(OCc1ccc(-c3ccon3)cc1)C2 (stereo partly drawn) [Example 18.80, (5′S)-3-{[4-(1,2-oxazol-3-yl)phenyl]methoxy}-5′-(pyrazin-2-yl)tetrahydro-3′H-spiro[cyclobutane-1,2′-pyrrolo[2,1-b][1,3]oxazol]-3′-one] | 7.35
13 | COc1ccc2cc(COC3CC4(C3)OC3CC[C@@H](c5cnccn5)N3C4=O)ncc2n1 (stereo partly drawn) [Example 18.81, (5′S)-3-[(2-methoxy-1,7-naphthyridin-6-yl)methoxy]-5′-(pyrazin-2-yl)tetrahydro-3′H-spiro[cyclobutane-1,2′-pyrrolo[2,1-b][1,3]oxazol]-3′-one] | 6.12
14 | O=C1N2C(CC[C@H]2c2cnccn2)OC12CC(OCc1cc(Cl)ccc1-c1cnco1)C2 (stereo partly drawn) [Example 18.82, (5′S)-3-{[5-chloro-2-(1,3-oxazol-5-yl)phenyl]methoxy}-5′-(pyrazin-2-yl)tetrahydro-3′H-spiro[cyclobutane-1,2′-pyrrolo[2,1-b][1,3]oxazol]-3′-one] | 7.00
15 | COc1cc(COC2CC3(C2)OC2CC[C@@H](c4cnccn4)N2C3=O)cc2nccn12 (stereo partly drawn) [Example 18.83, (5′S)-3-[(5-methoxyimidazo[1,2-a]pyridin-7-yl)methoxy]-5′-(pyrazin-2-yl)tetrahydro-3′H-spiro[cyclobutane-1,2′-pyrrolo[2,1-b][1,3]oxazol]-3′-one] | 6.85
16 | O=C1N2C(CC[C@H]2c2cnccn2)OC12CC(OCc1cccc3nccn13)C2 (stereo partly drawn) [Example 18.84, (5′S)-3-[(imidazo[1,2-a]pyridin-5-yl)methoxy]-5′-(pyrazin-2-yl)tetrahydro-3′H-spiro[cyclobutane-1,2′-pyrrolo[2,1-b][1,3]oxazol]-3′-one] | 6.74
17 | O=C1N2C(CC[C@H]2c2cnccn2)OC12CC(OCc1ccc3cnccc3c1)C2 (stereo partly drawn) [Example 18.85, (5′S)-3-[(isoquinolin-6-yl)methoxy]-5′-(pyrazin-2-yl)tetrahydro-3′H-spiro[cyclobutane-1,2′-pyrrolo[2,1-b][1,3]oxazol]-3′-one] | 7.10
18 | COc1ccc(COC2CC3(C2)OC2CC[C@@H](c4cnccn4)N2C3=O)cc1CC#N (stereo partly drawn) [Example 18.86, [2-methoxy-5-({[(5′S)-3′-oxo-5′-(pyrazin-2-yl)tetrahydro-3′H-spiro[cyclobutane-1,2′-pyrrolo[2,1-b][1,3]oxazol]-3-yl]oxy}methyl)phenyl]acetonitrile] | 7.03
19 | O=C1N2C(CC[C@H]2c2cnccn2)OC12CC(OCc1cc(-n3ccnc3)ccn1)C2 (stereo partly drawn) [Example 18.87] | 6.23
20 | N#Cc1ccc(OC2CCC2)cc1COC1CC2(C1)OC1CC[C@@H](c3cnccn3)N1C2=O (stereo partly drawn) [Example 18.88, 4-(cyclobutyloxy)-2-({[(5′S)-3′-oxo-5′-(pyrazin-2-yl)tetrahydro-3′H-spiro[cyclobutane-1,2′-pyrrolo[2,1-b][1,3]oxazol]-3-yl]oxy}methyl)benzonitrile] | 6.77
21 | COc1ccc2cc(COC3CC4(C3)OC3CC[C@@H](c5cnccn5)N3C4=O)cc(C)c2n1 (stereo partly drawn) [Example 18.89, (5′S)-3-[(2-methoxy-8-methylquinolin-6-yl)methoxy]-5′-(pyrazin-2-yl)tetrahydro-3′H-spiro[cyclobutane-1,2′-pyrrolo[2,1-b][1,3]oxazol]-3′-one] | 6.62
22 | O=C1N2C(CC[C@H]2c2cnccn2)OC12CC(OCc1cnc3c(c1)CCCC3)C2 (stereo partly drawn) [Example 18.90, (5′S)-5′-(pyrazin-2-yl)-3-[(5,6,7,8-tetrahydroquinolin-3-yl)methoxy]tetrahydro-3′H-spiro[cyclobutane-1,2′-pyrrolo[2,1-b][1,3]oxazol]-3′-one] | 6.11
23 | O=C1N2C(CC[C@H]2c2cnccn2)OC12CC(OCc1cc3ncccc3s1)C2 (stereo partly drawn) [Example 18.91, (5′S)-5′-(pyrazin-2-yl)-3-[(thieno[3,2-b]pyridin-2-yl)methoxy]tetrahydro-3′H-spiro[cyclobutane-1,2′-pyrrolo[2,1-b][1,3]oxazol]-3′-one] | 7.66
24 | O=C1N2C(CC[C@H]2c2cnccn2)OC12CC(OCc1ccc3c(c1)CCO3)C2 (stereo partly drawn) [Example 18.92, (5′S)-3-[(2,3-dihydro-1-benzofuran-5-yl)methoxy]-5′-(pyrazin-2-yl)tetrahydro-3′H-spiro[cyclobutane-1,2′-pyrrolo[2,1-b][1,3]oxazol]-3′-one] | 6.61
25 | N#Cc1ccncc1COC1CC2(C1)OC1CC[C@@H](c3cnccn3)N1C2=O (stereo partly drawn) [Example 18.93, 3-({[(5′S)-3′-oxo-5′-(pyrazin-2-yl)tetrahydro-3′H-spiro[cyclobutane-1,2′-pyrrolo[2,1-b][1,3]oxazol]-3-yl]oxy}methyl)pyridine-4-carbonitrile] | 6.48
26 | O=C1N2C(CC[C@H]2c2cnccn2)OC12CC(OCc1cnc3nccn3c1)C2 (stereo partly drawn) [Example 18.94, (5′S)-3-[(imidazo[1,2-a]pyrimidin-6-yl)methoxy]-5′-(pyrazin-2-yl)tetrahydro-3′H-spiro[cyclobutane-1,2′-pyrrolo[2,1-b][1,3]oxazol]-3′-one] | 6.55
27 | N#CCCc1ccc(COC2CC3(C2)OC2CC[C@@H](c4cnccn4)N2C3=O)cc1 (stereo partly drawn) [Example 18.95, 3-[4-({[(5′S)-3′-oxo-5′-(pyrazin-2-yl)tetrahydro-3′H-spiro[cyclobutane-1,2′-pyrrolo[2,1-b][1,3]oxazol]-3-yl]oxy}methyl)phenyl]propanenitrile] | 6.89
